Activity calls are given as the source filed them. No cut-off for these calls is given here.
What was measured:
MDA-MB-231 [1] = experiment: Antitumor activity against human MDA-MB-231 cells xenografted iv dosed athymic NCr-nu/nu mouse assessed as reduction in tumor size administered 3 times a week for 3 weeks; format: functional, organism-based
MDA-MB-231 [2] = experiment: Cytotoxicity against human MDA-MB-231 cells assessed as inhibition of cell growth by MTT assay; format: functional, cell-based
MDA-MB-231 [3] = experiment: Cytotoxicity against HuR knockout 1 human MDA-MB-231 cells assessed as inhibition of cell growth by MTT assay (reference value: 1.491 uM); format: functional, cell-based
MDA-MB-231 [4] = experiment: Cytotoxicity against HuR knockout 2 human MDA-MB-231 cells assessed as inhibition of cell growth by MTT assay (reference value: 1.491 uM); format: functional, cell-based
[5] = target: ELAV-like protein 1 (Homo sapiens) (UniProt Q15717); experiment: Thermal stabilization of HuR in human MDA-MB-231 cells at 10 uM at 42 to 54 degreeC incubated for 1 hr by western blot based cellular thermal shift assay; format: cell-based
ELAV-like protein 1 (Homo sapiens), sequence (Q15717 whole entry): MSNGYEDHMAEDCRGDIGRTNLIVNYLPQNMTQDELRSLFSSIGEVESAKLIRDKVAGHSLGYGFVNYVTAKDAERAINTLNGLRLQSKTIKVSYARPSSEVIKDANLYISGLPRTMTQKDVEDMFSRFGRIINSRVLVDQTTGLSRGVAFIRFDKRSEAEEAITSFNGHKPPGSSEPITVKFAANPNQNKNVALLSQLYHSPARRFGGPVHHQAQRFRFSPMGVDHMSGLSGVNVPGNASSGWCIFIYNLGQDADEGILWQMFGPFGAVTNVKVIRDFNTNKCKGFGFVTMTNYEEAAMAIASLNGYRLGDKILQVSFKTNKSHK

MDA-MB-231 [6] = experiment: Inhibition of HuR-Bcl-2 mRNA binding in human MDA-MB-231 cells at 5 uM incubated for 6 hrs by RNP immunoprecipitation assay; format: cell-based
MDA-MB-231 [7] = experiment: Inhibition of HuR-Msi2 mRNA binding in human MDA-MB-231 cells at 5 uM incubated for 6 hrs by RNP immunoprecipitation assay; format: cell-based
MDA-MB-231 [8] = experiment: Inhibition of HuR-XIAP mRNA binding in human MDA-MB-231 cells at 5 uM incubated for 6 hrs by RNP immunoprecipitation assay; format: cell-based
MDA-MB-231 [9] = experiment: Inhibition of HuR-16-nt biotinylated ARE Msi1 mRNA binding in human MDA-MB-231 cells at 20 uM by Western blotting analysis based pull-down assay; format: cell-based
MDA-MB-231 [10] = experiment: Inhibition of HuR-16-nt biotinylated ARE Msi1 mRNA binding in human MDA-MB-231 cells at 10 uM by Western blotting analysis based pull-down assay; format: cell-based
MDA-MB-231 [11] = experiment: Downregulation of Bcl-2 protein expression in human MDA-MB-231 cells incubated for 48 hrs by Western blotting analysis; format: functional, cell-based; conditions: dose 5-10 µM
MDA-MB-231 [12] = experiment: Downregulation of Msi2 protein expression in human MDA-MB-231 cells incubated for 48 hrs by Western blotting analysis; format: functional, cell-based; conditions: dose 5-10 µM
MDA-MB-231 [13] = experiment: Downregulation of XIAP protein expression in human MDA-MB-231 cells incubated for 48 hrs by Western blotting analysis; format: functional, cell-based; conditions: dose 5-10 µM
MDA-MB-231 [14] = experiment: Downregulation of HuR protein expression in human MDA-MB-231 cells at 5 to 10 uM incubated for 48 hrs by Western blotting analysis; format: functional, cell-based; conditions: dose 5-10 µM
MDA-MB-231 [15] = experiment: Inhibition of cell invasion of human MDA-MB-231 cells at 5 uM incubated for 24 hrs by crystal violet staining based analysis; format: functional
[16] = target: ELAV-like protein 1 (Homo sapiens) (UniProt Q15717); experiment: Thermal stabilization of HuR in human MDA-MB-231 cells at 20 uM at 42 to 54 degreeC incubated for 1 hr by western blot based cellular thermal shift assay; format: cell-based
MDA-MB-231 [17] = experiment: Inhibition of HuR-Bcl-2 mRNA binding in human MDA-MB-231 cells at 10 uM incubated for 6 hrs by RNP immunoprecipitation assay; format: cell-based
MDA-MB-231 [18] = experiment: Inhibition of HuR-Msi2 mRNA binding in human MDA-MB-231 cells at 10 uM incubated for 6 hrs by RNP immunoprecipitation assay; format: cell-based
MDA-MB-231 [19] = experiment: Inhibition of HuR-XIAP mRNA binding in human MDA-MB-231 cells at 10 uM incubated for 6 hrs by RNP immunoprecipitation assay; format: cell-based
MDA-MB-231 [20] = experiment: Inhibition of cell invasion of human MDA-MB-231 cells at 10 uM incubated for 24 hrs by crystal violet staining based analysis; format: functional
MDA-MB-231 [21] = experiment: Inhibition of HuR-TGFB2 mRNA binding in human MDA-MB-231 cells assessed as half life of TGFB2 in presence of actinomycin D (reference value: 7.202 hrs); format: cell-based
MDA-MB-231 [22] = experiment: Inhibition of HuR-THBS1 mRNA binding in human MDA-MB-231 cells assessed as half life of THBS1 in presence of actinomycin D (reference value: 10.46 hrs); format: cell-based

CC(=O)O[C@@]12CO[C@@H]1C[C@H](O)[C@@]1(C)C(=O)[C@H](O)C3=C(C)[C@@H](OC(=O)[C@H](O)[C@@H](NC(=O)OC(C)(C)C)c4ccccc4)C[C@@](O)([C@@H](OC(=O)c4ccccc4)[C@H]21)C3(C)C
Activity (MDA-MB-231 [1]): Active

CN(C)c1ccc(C(=O)Nc2ccc3sc(C(=O)NO)cc3c2)cc1
IC50 (MDA-MB-231 [2]): 1.31 µM
IC50 (MDA-MB-231 [3]): 3.66 µM
IC50 (MDA-MB-231 [4]): 3.01 µM
Activity [5]: Active
inhibition (MDA-MB-231 [6]): Active
inhibition (MDA-MB-231 [7]): Active
inhibition (MDA-MB-231 [8]): Active
inhibition (MDA-MB-231 [9]): inactive
inhibition (MDA-MB-231 [10]): Active
Activity (MDA-MB-231 [11]): Dose-Dependent Effect
Activity (MDA-MB-231 [12]): Dose-Dependent Effect
Activity (MDA-MB-231 [13]): Dose-Dependent Effect
Activity (MDA-MB-231 [14]): inactive
inhibition (MDA-MB-231 [15]): Active

O=C(Nc1ccc2[nH]c(C(=O)NO)cc2c1)c1ccccn1
IC50 (MDA-MB-231 [2]): 75.3 µM
Activity [16]: inactive
inhibition (MDA-MB-231 [17]): inactive
inhibition (MDA-MB-231 [18]): inactive
inhibition (MDA-MB-231 [19]): inactive
inhibition (MDA-MB-231 [20]): inactive
T1/2 (MDA-MB-231 [21]): 7.09 h
T1/2 (MDA-MB-231 [22]): 9.03 h
